Reference: patent US20260008746A1, “CATIONIC LIPID COMPOUND WITH HIGH EFFICIENCY, LOW TOXICITY AND STABLE EXPRESSION, AND COMPOSITION COMPRISNG SAME” (HANGZHOU TIANLONG PHARMACEUTICAL CO., LTD, priority 2023, published 2026)

Key:
[1] = Determination of particle size and polydispersity index (PDI) of lipid nanoparticles by dynamic light scattering; assay type: physicochemical; conditions: LNP formulation of named cationic lipid/DSPC/cholesterol/DMG-PEG2000 49:10:39.5:1.5
Outline: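 LNPs of cationic lipid/DSPC/cholesterol/DMG-PEG2000 (49:10:39.5:1.5 mol%), lipid:mRNA 15:1 w/w, carrying eGFP or Fluc mRNA, made by ethanol injection into citrate buffer pH 4–5, sonicated, PBS-exchanged by ultrafiltration. Size and PDI by dynamic light scattering after dilution in RNase-free water, 90° angle, 25 °C, triplicate.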

[2] = tested on: 293T cells; assay: Fluorescent detection of Fluc-mRNA (cell transfection efficiency of LNP formulations); assay type: cell-based
Outline: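 293T cells seeded at 10,000 per well, cultured overnight, then given LNP carrying 0.3 μg Fluc-mRNA (cationic:neutral:structured:PEG-lipid 49:10:39.5:1.5 molar). Incubated 24 h. Luciferase signal read with kit reagent on an IVIS imaging system.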

[3] = tested on: 293T cells; assay: Cell survival rate determination (CCK-8); assay type: cell-based
Outline: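 293T cells were seeded overnight at 10,000 cells/well in 96-well plates, then exposed for 24 h to LNP containing 1.5 μg Fluc-mRNA (cationic:neutral:structural:polymer-conjugated lipid, 49:10:39.5:1.5 molar) or to Lipofectamine 3000. Viability was read by CCK-8, 1 h incubation, absorbance 450 nm.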

[4] = tested on: BALB/C mice; assay: In vivo imaging of Fluc-mRNA expression in mice delivered by LNP formulations
Outline: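 Female BALB/C mice (4-6 weeks, 17-19 g) received LNP carrying […] Fluc-mRNA intramuscularly. Substrate was given intraperitoneally at 6 h, 24 h, 48 h and 7 d, and average radiance was imaged by IVIS 5 min later.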

Compound: CCCCCCCCCCOC(=O)CCCN(CCCCCC(=O)OCCC(CCCCCC)CCCCCC)CCOCCO [YK-123, 3-hexylnonyl 6-(4-(decyloxy)-4-oxobutyl)(2-(2-hydroxyethoxy-ethyl)amino)hexanoate]
- PDI(%) [1]: 15.4%
- Particle size (nm) ([1]; 90° scattering angle, 25° C): 246 nm
- cell transfection efficiency, times that of YK-124 [2]: 10 times
- Relative light unit (RLU) ([2]; LNP formulation containing 0.3 μg Fluc-mRNA, 96-well plate, 24 hours): 807703 RLU
- Multiples (YK-107) ([2]; RLU of YK-107 / RLU of named substance): 27.68
- fluorescence absorption value, times that of HHMA ([2]; RLU of named substance / RLU of HHMA): 0.39 times
- fluorescence absorption value, times that of Lipofectamine 3000 ([2]; RLU of named substance / RLU of Lipofectamine 3000): 0.75 times
- Ratio relative to SM-102 ([2]; RLU of named substance / RLU of SM-102): 0.53
- Fluc-mRNA expression signal intensity, times that of compound 21 ([2]; RLU of named substance / RLU of compound 21): 0.58 times
- fluorescence absorption value, times that of compound 23 ([2]; RLU of named substance / RLU of compound 23): 0.63 times
- difference from SM-102 in Fluc-mRNA fluorescence (GraphPad Prism analysis) ([2]; statistical comparison with SM-102): no significant difference
- Cell survival rate (%) ([3]; LNP formulation containing 1.5 μg Fluc-mRNA, 24 hours, CCK-8, absorbance at 450 nm): 76.68%
- cell survival rate lower than that of YK-101 ([3]; cell survival rate of YK-101 minus that of named substance): 13.44%
- cell survival rate lower than that of YK-107 ([3]; cell survival rate of YK-107 minus that of named substance): 13.77%
- cell survival rate lower than that of YK-108 ([3]; cell survival rate of YK-108 minus that of named substance): 13.18%
- average radiation intensity of YK-101, times that of named substance ([4]; 6 h): 4.7 times
- average radiation intensity of YK-107, times that of named substance ([4]; 6 h): 5.0 times
- average radiation intensity of YK-108, times that of named substance ([4]; 6 h): 6.4 times
- average radiation intensity of YK-101, times that of named substance ([4]; 24 h): 18.0 times
- average radiation intensity of YK-107, times that of named substance ([4]; 24 h): 22.2 times
- average radiation intensity of YK-108, times that of named substance ([4]; 24 h): 23.9 times
- average radiation intensity of YK-101, times that of named substance ([4]; 48 h): 19.9 times
- average radiation intensity of YK-107, times that of named substance ([4]; 48 h): 24.2 times
- average radiation intensity of YK-108, times that of named substance ([4]; 48 h): 24.7 times
- average radiation intensity of YK-101, times that of named substance ([4]; 7 d): 8.6 times
- average radiation intensity of YK-107, times that of named substance ([4]; 7 d): 9.4 times
- average radiation intensity of YK-108, times that of named substance ([4]; 7 d): 10.0 times
- average radiation intensity, 6 h ([4]; LNP containing 10 pg Fluc-mRNA, intramuscular, female BALB/C mice, 6 h): 317640
- average radiation intensity, 24 h ([4]; LNP containing 10 pg Fluc-mRNA, intramuscular, female BALB/C mice, 24 h): 58728
- average radiation intensity, 48 h ([4]; LNP containing 10 pg Fluc-mRNA, intramuscular, female BALB/C mice, 48 h): 9336
- average radiation intensity, 7 d ([4]; LNP containing 10 pg Fluc-mRNA, intramuscular, female BALB/C mice, 7 d): 1414
